The source made the active and inactive calls. The calls are words filed in the database; no cut-off is given here.
Legend:
[1] = target: T1, Adenosine receptor A3 (Homo sapiens, UniProt P0DMS8); assay: biochemical
T1 sequence (P0DMS8 whole entry): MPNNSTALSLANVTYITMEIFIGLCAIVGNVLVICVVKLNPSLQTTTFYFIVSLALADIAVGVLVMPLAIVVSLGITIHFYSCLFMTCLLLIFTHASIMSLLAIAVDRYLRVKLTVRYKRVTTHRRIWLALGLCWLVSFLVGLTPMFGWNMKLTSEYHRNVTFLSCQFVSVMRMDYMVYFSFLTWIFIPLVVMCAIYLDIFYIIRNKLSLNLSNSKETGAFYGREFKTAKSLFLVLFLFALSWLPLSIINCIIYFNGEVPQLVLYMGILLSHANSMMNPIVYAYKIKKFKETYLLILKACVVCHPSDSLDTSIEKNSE
Description: (§1) Displacement of [125I]I-AB-MECA from human adenosine A3 receptor expressed in CHO cells after 90 mins by gamma counting analysis

[2] = target: T1, Adenosine receptor A3
Description: Competitive binding affinity to human adenosine A3 receptor expressed in CHO cells after 90 mins by flow cytometric analysis in presence of MRS5449

[3] = target: T2, Adenosine receptor A1 (Bos taurus, UniProt P28190); assay: Displacement of [3H]ADAC from adenosine A1 receptor in bovine cerebral cortical membranes after 120 mins; type: cell membranes
T2 sequence (P28190 whole entry): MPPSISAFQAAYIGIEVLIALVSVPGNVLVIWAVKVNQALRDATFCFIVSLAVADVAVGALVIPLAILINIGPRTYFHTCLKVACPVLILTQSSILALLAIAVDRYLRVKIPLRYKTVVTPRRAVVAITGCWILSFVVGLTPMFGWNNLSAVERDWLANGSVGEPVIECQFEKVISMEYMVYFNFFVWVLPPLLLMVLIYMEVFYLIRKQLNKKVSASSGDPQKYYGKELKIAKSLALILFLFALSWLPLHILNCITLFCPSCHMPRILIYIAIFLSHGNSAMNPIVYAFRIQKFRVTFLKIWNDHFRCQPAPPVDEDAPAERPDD

[4] = target: T3, Adenosine receptor A1 (Rattus norvegicus, UniProt P25099); assay: Displacement of [3H]ADAC from adenosine A1 receptor in rat cerebral cortical membranes after 120 mins; type: cell membranes, Membrane
T3 sequence (P25099 whole entry): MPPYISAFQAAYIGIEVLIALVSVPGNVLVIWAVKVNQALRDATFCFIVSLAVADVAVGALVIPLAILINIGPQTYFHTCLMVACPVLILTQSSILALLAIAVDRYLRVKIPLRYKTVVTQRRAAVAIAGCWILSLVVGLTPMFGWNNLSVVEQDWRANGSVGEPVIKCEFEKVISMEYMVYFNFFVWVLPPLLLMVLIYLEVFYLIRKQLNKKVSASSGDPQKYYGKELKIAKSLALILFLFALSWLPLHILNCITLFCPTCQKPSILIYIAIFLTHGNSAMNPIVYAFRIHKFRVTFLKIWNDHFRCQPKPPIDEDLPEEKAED

[5] = target: T4, Adenosine receptor A1 (Homo sapiens) (UniProt P30542); assay: Displacement of [3H]DPCPX from human adenosine A1 receptor expressed in CHO cells up to 0.1 mM after 2 hrs by scintillation counting analysis; type: cell-based
T4 sequence (whole entry): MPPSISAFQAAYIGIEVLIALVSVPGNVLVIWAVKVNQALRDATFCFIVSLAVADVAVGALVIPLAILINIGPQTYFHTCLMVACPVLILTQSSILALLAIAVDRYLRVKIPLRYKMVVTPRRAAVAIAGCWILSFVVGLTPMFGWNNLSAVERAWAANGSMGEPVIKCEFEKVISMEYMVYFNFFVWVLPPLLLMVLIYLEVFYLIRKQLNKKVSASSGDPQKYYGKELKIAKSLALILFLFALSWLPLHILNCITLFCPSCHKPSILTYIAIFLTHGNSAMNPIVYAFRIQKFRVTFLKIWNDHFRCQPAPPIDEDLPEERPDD

[6] = target: T4, Adenosine receptor A1 (Homo sapiens); assay: Displacement of [3H]R-PIA from human adenosine A1 receptor expressed in CHO cells at 10 uM after 60 mins by […] analysis relative to control; type: cell-based
[7] = target: T5, Adenosine receptor A2a (Homo sapiens, UniProt P29274); assay: Displacement of [3H]CGS21680 from human adenosine A2A receptor expressed in HEK293 cells after 60 mins by […] analysis; type: cell-based
T5 sequence (P29274 whole entry): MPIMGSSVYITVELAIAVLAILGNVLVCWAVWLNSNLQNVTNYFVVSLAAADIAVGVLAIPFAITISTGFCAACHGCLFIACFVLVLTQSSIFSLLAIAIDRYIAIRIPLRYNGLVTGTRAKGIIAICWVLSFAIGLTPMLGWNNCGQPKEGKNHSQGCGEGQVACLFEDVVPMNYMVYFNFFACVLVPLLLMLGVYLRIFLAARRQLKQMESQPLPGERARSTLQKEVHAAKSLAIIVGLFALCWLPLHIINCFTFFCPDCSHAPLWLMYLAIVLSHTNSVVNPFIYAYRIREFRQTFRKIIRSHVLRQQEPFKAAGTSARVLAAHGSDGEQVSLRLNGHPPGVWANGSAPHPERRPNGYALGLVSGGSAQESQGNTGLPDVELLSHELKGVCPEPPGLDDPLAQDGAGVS

[8] = target: T1, Adenosine receptor A3; type: cell-based, CHO
[9] = target: T5, Adenosine receptor A2a; assay: Displacement of [3H]CGS21680 from adenosine A2A receptor in human striatal membranes; type: cell membranes, Striatum, Membrane
[10] = target: T6, Adenosine receptor A1 (Homo sapiens, UniProt P30542); assay: Displacement of [3H]DPCPX from adenosine A1 receptor in human cortical membranes; type: cell membranes
T6 sequence (P30542 whole entry): T4 sequence (whole entry)

[11] = target: T1, Adenosine receptor A3; type: cell-based, CHO; remark: listed apart in the source
[12] = target: T1, Adenosine receptor A3; remark: listed apart in the source
Description: as §1

[13] = target: T6, Adenosine receptor A1; assay: Antagonist activity at human adenosine A1 receptor expressed in CHO cells coexpressing cAMP response element assessed as inhibition of agonist-induced response by SPAP reporter gene assay in presence of forskolin; type: functional, cell-based

In the case of `CC[C@@H]1CN2C(=O)N(C)c3nc(-c4cc(Cl)cc(Cl)c4Cl)[nH]c3C2=N1`, the Ki [1] is reported as 0.441 nM and the Ki [2] is reported as 9.54 nM.

With `O=C(Cc1ccc(NC(=O)Cc2ccc(Nc3ncnc4c3ncn4[C@@H]3O[C@H](CO)[C@@H](O)[C@H]3O)cc2)cc1)NCCNc1ccc([N+](=O)[O-])c2nonc12` the Ki [3] was 1.62 nM and the Ki [4] was 4.37 nM.

Work on `CCCN1C(=O)C2NC(c3ccc(OCC(=O)NCCNC(=O)NCC(=O)NCC(=O)NCC(=S)c4ccc(C5c6ccc(O)cc6OC6=CC(=O)C=CC65)c(C(=O)O)c4)cc3)=NC2N(CCC)C1=O` (stereo not drawn) yielded a Ki [3] of 17 nM and a Ki [4] of 97.7 nM.

In the case of `CCNC(=O)[C@H]1O[C@@H](n2cnc3c(NCCCCNC(=O)CCCCCCCNS(=O)(=O)c4cccc5c(N(C)C)cccc45)ncnc32)[C@H](O)[C@@H]1O`, the Activity [5] is reported as “inactive”.

For `Cn1cc2c(nc(NCCCNC(=S)Nc3ccc(C4c5ccc(O)cc5OC5=CC(=O)C=CC54)c(C(=O)O)c3)n3nc(-c4ccco4)nc23)n1` (stereo not drawn), the inhibition [6] was 5%, the Ki [7] was 2510 nM and the Ki [8] was 2400 nM.

`CCNC(=O)[C@H]1O[C@@H](n2cnc3c(NCCCCNC(=O)CCC4=[N+]5C(=Cc6c(C)cc(C)n6[B-]5(F)F)C=C4)ncnc32)[C@H](O)[C@@H]1O` was tested, and the Activity [5] was “inactive”.

With `CCNC(=O)[C@H]1O[C@@H](n2cnc3c(NCCCCNC(=O)CCCCCN4/C(=C/C=C/C=C/C5=[N+](CC)c6cc(S(=O)(=O)O)ccc6C5(C)C)C(C)(C)c5cc(S(=O)(=O)[O-])ccc54)ncnc32)[C@H](O)[C@@H]1O` the Activity [5] was “inactive”.

Compound `CCNC(=O)[C@H]1O[C@@H](n2cnc3c(NCCCCCCCCNc4ccc([N+](=O)[O-])c5nonc45)ncnc32)[C@H](O)[C@@H]1O` has a Ki [9] of 5.13 µM, a Ki [10] of 3.55 µM and a Ki [11] of 7.41 nM.

Work on `CCNC(=O)[C@H]1O[C@@H](n2cnc3c(NCCNc4ccc([N+](=O)[O-])c5nonc45)ncnc32)[C@H](O)[C@@H]1O` yielded a Ki [9] of 6.76 µM, a Ki [10] of over 10 µM and a Ki [11] of 56.2 nM.

In the case of `Nc1nc(NCCc2ccc(O)cc2)nc2nc(-c3ccco3)nn12` [ZM-241385], the Ki [12] is reported as 743 nM.

In the case of `Nc1nc2ccc(Cl)cc2c2nc(-c3ccco3)nn12` [CGS-15943], the Ki [12] is reported as 35 nM.

In the case of `Cn1cc2c(nc(NCCCCNC(=S)Nc3ccc(C4c5ccc(O)cc5OC5=CC(=O)C=CC54)c(C(=O)O)c3)n3nc(-c4ccco4)nc23)n1` (stereo not drawn), the inhibition [6] is reported as 7%, the Ki [7] is reported as 468 nM and the Ki [8] is reported as 724 nM.

For `CCNC(=O)[C@H]1O[C@@H](n2cnc3c(NCCCNC(=O)COc4ccc(/C=C/C5=[N+]6C(=Cc7ccc(-c8cccs8)n7[B-]6(F)F)C=C5)cc4)ncnc32)[C@H](O)[C@@H]1O`, the Kd [13] was 16.2 nM.

`CCNC(=O)[C@H]1O[C@@H](n2cnc3c(NCCNC(=O)COc4ccc(/C=C/C5=[N+]6C(=Cc7ccc(-c8cccs8)n7[B-]6(F)F)C=C5)cc4)ncnc32)[C@H](O)[C@@H]1O` gave a Kd [13] of 14.5 nM.

For `CCCn1c(=O)c2[nH]c(-c3ccc(OCC(=O)NCCNC(=S)Nc4ccc(C5c6ccc(O)cc6OC6=CC(=O)C=CC65)c(C(=O)O)c4)cc3)nc2n(CCC)c1=O` (stereo not drawn), the Ki [3] was 9.33 nM and the Ki [4] was 126 nM.

`CCNC(=O)[C@H]1O[C@@H](n2cnc3c(NCCCCCCCCNC(=O)COc4ccc(/C=C/C5=[N+]6C(=Cc7ccc(-c8cccs8)n7[B-]6(F)F)C=C5)cc4)ncnc32)[C@H](O)[C@@H]1O` was tested, and the Kd [13] was 14.1 nM.

— ChEMBL document CHEMBL2412992, “Fluorescent ligands for adenosine receptors” (Bioorg Med Chem Lett, 2013)
